Reference: ChEMBL document CHEMBL2331345, “Syntheses of lipophilic chalcones and their conformationally restricted analogues as antitubercular agents” (Bioorg Med Chem Lett, 2013)
Values after ≈ are worked out from the molar mass of the structure shown. Active and inactive are the calls of the source. The rule behind the calls is not given here.

Experiments:
[1] = test system: Mycobacterium tuberculosis; test: Antitubercular activity against Mycobacterium tuberculosis assessed as growth inhibition; format: functional
[2] = test system: Mycobacterium tuberculosis; test: Antitubercular activity against Mycobacterium tuberculosis H37Rv ATCC 27294 assessed as growth inhibition measured every 24 hrs by BACTEC radiosusceptibility assay; format: functional; conditions: H37Rv ATCC 27294, 24 h
[3] = test system: Mycobacterium tuberculosis; test: Antitubercular activity against Mycobacterium tuberculosis H37Rv ATCC 27294 assessed as growth inhibition at 250 ug/ml measured every 24 hrs by BACTEC radiosusceptibility assay; format: functional, organism-based
HEK293 = test: Cytotoxicity against human HEK293 cells assessed as inhibition of cell viability after 24 hrs by MTT assay; format: cell-based; conditions: HEK293, 24 h
Mycobacterium sp. = test: Antibacterial activity against Mycobacterium sp. assessed as growth inhibition; format: functional
[4] = Selectivity ratio of IC50 for human HEK293 cells to MIC for Mycobacterium tuberculosis H37Rv ATCC 27294; format: functional

COc1cc(/C=C/c2ccccc2)oc(=O)c1 [DESMETHOXYYANGONIN]
MIC [1]: 4 µg/mL (≈ 17.5 µM)

CO[C@H]1/C=C/O[C@@]2(C)Oc3c(C)c(O)c4c(O)c(c(/C=N/N5CCN(C)CC5)c(O)c4c3C2=O)NC(=O)/C(C)=C\C=C\[C@H](C)[C@H](O)[C@@H](C)[C@@H](O)[C@@H](C)[C@H](OC(C)=O)[C@@H]1C [RIFAMPIN]
MIC [2]: 2 µg/mL (≈ 2.43 µM)

COc1ccc(C(=O)/C=C/c2ccc(O)cc2)c(O)c1
growth inhibition (GI) [3]: inactive

COc1cc2oc(=O)ccc2cc1CC=C(C)C [SUBEROSIN]
MIC [1]: 16 µg/mL (≈ 65.5 µM)

CC(C)=CCOc1c2ccoc2cc2oc(=O)ccc12 [ISOIMPERATORIN]
MIC [1]: 64 µg/mL (≈ 237 µM)

COc1ccc(/C=C/c2c(-c3ccccc3)c(=O)oc3cc(O)ccc23)cc1
MIC [2]: 125 µg/mL (≈ 337 µM) | IC50 (HEK293): > 250 µg/mL

COc1ccc2c(/C=C/c3ccc(OC(C)=O)cc3)c(-c3ccccc3)c(=O)oc2c1
growth inhibition (GI) [3]: inactive

C=CC(C)(C)c1cc(/C=C/C(=O)c2ccc(O)cc2)c(OC)cc1O [LICOAGROCHACONE A]
MIC [1]: 7.1 µg/mL (≈ 21 µM)

COc1ccc2ccc(=O)oc2c1CC=C(C)C [OSTHOLE]
MIC [1]: 32 µg/mL (≈ 131 µM)

COc1ccc(/C=C/C(=O)c2ccc(O)cc2O)cc1
growth inhibition (GI) [3]: inactive

COc1ccc(C(=O)/C(=C/c2ccc(O)cc2)c2ccccc2)cc1
MIC [2]: 60 µg/mL (≈ 182 µM) | IC50 (HEK293): 50 µg/mL (≈ 151 µM)

CN[C@@H]1[C@H](O[C@H]2[C@H](O[C@H]3[C@H](O)[C@@H](O)[C@H](N=C(N)N)[C@@H](O)[C@@H]3N=C(N)N)O[C@@H](C)[C@]2(O)C=O)O[C@@H](CO)[C@H](O)[C@H]1O [STREPTOMYCIN]
MIC [2]: 2 µg/mL (≈ 3.44 µM)

CCCCNC(=O)COc1ccc(/C=C(/C(=O)c2ccc(OC)cc2)c2ccccc2)cc1
growth inhibition (GI) [3]: inactive

COc1cc(CCc2ccc3c(c2)OCO3)oc(=O)c1
MIC [1]: 32 µg/mL (≈ 117 µM)

COc1ccc2c(/C=C/c3ccc(OC(C)CN(C)C)cc3)c(-c3ccccc3)c(=O)oc2c1 (stereo not drawn)
MIC [2]: 7.5 µg/mL (≈ 16.5 µM) | IC50 (HEK293): 5 µg/mL (≈ 11 µM)

CC(C)=CCC/C(C)=C/CC/C(C)=C/Cc1c(O)c2ccccc2oc1=O
MIC (Mycobacterium sp.): 2 µg/mL (≈ 5.46 µM)

COc1ccc2c(/C=C/c3ccc(OCCN4CCCC4)cc3)c(-c3ccccc3)c(=O)oc2c1
growth inhibition (GI) [3]: inactive

CCCCN(C)C(=O)COc1ccc(/C=C(/C(=O)c2ccc(OC)cc2)c2ccccc2)cc1
growth inhibition (GI) [3]: inactive

COc1ccc2c(/C=C/c3ccc(O)cc3)c(-c3ccccc3)c(=O)oc2c1
MIC [2]: 30 µg/mL (≈ 81 µM) | IC50 (HEK293): > 250 µg/mL | Ratio [4]: 16

COc1ccc(C(=O)/C(=C/c2ccc(OCC(=O)O)cc2)c2ccccc2)cc1
MIC [2]: 250 µg/mL (≈ 644 µM)

COc1ccc2c(/C=C/c3ccc(OCCN4CCCCC4)cc3)c(-c3ccccc3)c(=O)oc2c1
MIC [2]: 3.5 µg/mL (≈ 7.27 µM) | IC50 (HEK293): 5 µg/mL (≈ 10.4 µM) | Ratio [4]: 2.85
